No end group written: not given here.
What was measured:
Type in all cases: cell-based, mouse
[1] = test system: NkL-TAg cells; test: Induction of differentiation of NkL-TAg cells, sarcomeric α-actinin immunocytochemistry; settings: for sarcomere formation as assessed by α-actinin immunocytochemistry: NkL-TAg cells prior to depletion of TAg; for induction of sarcomere formation: NkL-TAg cells after removal of TAg, in differentiation medium (5% horse serum, insulin, transferrin, selenium)
Experimental: (§1) Cell Culture. Cells were isolated from sub-endocardial tumor-like structures in the hearts of transgenic mice as previously described with some modifications (Paradis et al, 1996). Briefly, dissected tissues were minced and dissociated using an enzyme mix containing 0.2% […] (Worthington) and 0.6 mg/ml of pancreatin (Sigma). Cardiac cells derived from Nk-TAg and NkL-TAg mice were maintained in DMEM/F12 media supplemented with 100 IU/ml penicillin, 100 μg/ml streptomycin, 2 mM Lglutamine, and 10% fetal bovine serum (FBS) on plates coated with […] fibronectin and 0.1% 2 gelatin. Cloning cylinders were used to harvest cell clones. Cell growth curves were generated by plating 1.5×10^5 or 2×10^5 cells (as indicated) in growth medium onto 100 mm plates and counting total cell number every 24 hours for 5 days. Differentiation medium contains DMEM/F12 supplemented with 100 IU/ml penicillin, 100 μg/ml streptomycin, 2 mM L-glutamine, 5% heat inactivated horse serum, […], […] and 6.7 ng/ml sodium selenite.
Histochemical Analysis. Heart tissue was fixed in 10% phosphate-buffered formalin and stained with hematoxylin-eosin. Nk-TAg and NkL-TAg cells were cultured on coverslips and fixed for 10 minutes with either −20° C. methanol or 4% paraformaldehyde for immunohistochemistry. Blocking was performed by incubating fixed cells with 1.5% bovine serum albumin and 10% normal goat serum in PBS for 20 minutes. […] Secondary antibodies conjugated to either FITC or Texas Red (1:200, Vector Labs) were diluted in PBS and incubated for 30 minutes at room temperature. In some cases, nuclei were co-stained with DAPI (10 mg/ml) for 1 minute. Coverslips were mounted with Vectashield (Vector Laboratories) and fluorescence or confocal images were captured using Leica DMRXE or Zeiss 3.95 microscopes, respectively.
Viral Infection. Cells were infected with recombinant adenoviruses (Ad) at a multiplicity of infection (MOI) of 100 for 3 to 12 hrs. The medium was replaced with growth medium, and NkL-TAg cells were cultured for the indicated times before analyses. Recombinant adenoviruses were obtained from the following sources: Ad-Cre recombinase (Ad-Cre) was provided by Dr. Frank Graham (McMaster University) (Anton and Graham, 1995); GATA4 (Ad-GATA4), Nkx2.5 (Ad-Nkx2.5), MEK6 (Ad-MEK6), and GFP (Ad-GFP) were generated using the “Easy-Track” system as described (He et al., 1998); antisense HDAC4 and HDAC5 (Ad-HDAC4 or 5), expressing coding regions of HDAC genes in reverse orientation, were provided by Chun Zhang; MEF2C (Ad-MEF2C) was provided by Rebekka Nicol (HDAC 4/5 and MEF2c viruses were generated using pAC-CMV vector); constitutively active calcineurin (Ad-CnA), IGF-I receptor (Ad-IGFI), constitutively active CaMKI (Ad-CaMKI), β-galactosidase (Ad-LacZ) were generated by Dr. Robert Gerard (UT Southwestern) and were constructed using an in vitro Cre-lox recombination system (Aoki et al., 1999; Ng et al. 1999).

[2] = test system: Nk-TAg cells; test: α-actinin immunohistochemistry and sarcomere assembly in Nk-TAg cells; settings: for assembly of sarcomeres: hypertrophic agents added (20 nM ET-1, 100 mM [sic] PE, 1 mM [sic] angiotensin II)
Experimental: Histochemical Analysis. Heart tissue was fixed in 10% phosphate-buffered formalin and stained with hematoxylin-eosin. Nk-TAg and NkL-TAg cells were cultured on coverslips and fixed for 10 minutes with either −20° C. methanol or 4% paraformaldehyde for immunohistochemistry. Blocking was performed by incubating fixed cells with 1.5% bovine serum albumin and 10% normal goat serum in PBS for 20 minutes. Primary antibodies were incubated for 30-60 minutes in 1.5% bovine serum albumin in PBS as follows: monoclonal anti-myosin (smooth) (1:100, Sigma), polyclonal antimyosin (skeletal) (1:100, Sigma), monoclonal anti-α-smooth muscle actin (1:100, Sigma), monoclonal anti-skeletal myosin (slow) (1:100, Sigma), polyclonal anti-connexin 43 (1:100, Sigma), monoclonal anti-α-sarcomeric actin clone 5C5 (1:100, Sigma), monoclonal anti-desmin (1:100, Sigma), monoclonal anti-calponin (1:100, Sigma), monoclonal anti-α-actinin (sarcomeric) clone EA-53 (1:200, Sigma), monoclonal anti-SV40 T antigen (1:100, Santa Cruz). Secondary antibodies conjugated to either FITC or Texas Red (1:200, Vector Labs) were diluted in PBS and incubated for 30 minutes at room temperature. In some cases, nuclei were co-stained with DAPI (10 mg/ml) for 1 minute. Coverslips were mounted with Vectashield (Vector Laboratories) and fluorescence or confocal images were captured using Leica DMRXE or Zeiss 3.95 microscopes, respectively.
Drug treatment. Drugs were added into cell culture media as indicated at the following concentrations: 100 mM phenylephrine (PE), 10 mM norepinephrine (NE), 10 ng/ml recombinant human transforming growth factor-β1 (TGFβ1) (R&D Systems), 1 mM dynorphin-β (Peninsula Laboratories), 1 mM trans- or cis-retinoic acid (Sigma), 15 ng/ml bone morphogenetic protein (BMP)-2/4 (Genetics Institute, Cambridge, Mass.), 1 mM angiotensin II (R&D Systems), 20 nM endothelin-1 (ET-1) (R&D Systems), 100 ng/ml insulin-like growth factor I (IGF-I) (Roche), 5-azacytidine (Sigma), and 10 mg/ml mitomycin C (Sigma).

[3] = test system: Nk-TAg cells; test: Proliferation of Nk-TAg cardiac cell lines; settings: drug added to the growth medium; mitomycin C 10 mg/ml as printed
Experimental: as §1
Drug treatment. […]

Compound: Nc1ncn([C@@H]2O[C@H](CO)[C@@H](O)[C@H]2O)c(=O)n1 [5-azacytidine]
- sarcomere formation as assessed by α-actinin immunocytochemistry [1]: no effect

Compound: NC[C@H](O)c1ccc(O)c(O)c1 [NE, norepinephrine]
- induction of sarcomere formation [1]: further induction of sarcomere formation in some cells
- sarcomere formation as assessed by α-actinin immunocytochemistry [1]: no effect

Compound: CNC[C@H](O)c1cccc(O)c1 [PE, phenylephrine]
- assembly of sarcomeres [2]: did not further induce the assembly of sarcomeres
- induction of sarcomere formation [1]: further induction of sarcomere formation in some cells
- sarcomere formation as assessed by α-actinin immunocytochemistry [1]: no effect

Compound: Cn1c(=O)c2c(ncn2C)n(C)c1=O [caffeine]
- sarcomere formation as assessed by α-actinin immunocytochemistry [1]: no effect

Compound: CC1=C(/C=C/C(C)=C/C=C/C(C)=C\C(=O)O)C(C)(C)CCC1 [cis-retinoic acid]
- sarcomere formation as assessed by α-actinin immunocytochemistry [1]: no effect

Compound: C[C@H](CCC(=O)O)C[C@H](C)C[C@H](C)C(=O)/C=C(\O)[C@H](C)C[C@H](C)C/C=C/[C@@H](C)[C@@H](O)[C@@H](C)[C@@H](O)C[C@@H]1CC[C@@](C)([C@H]2CC[C@@](C)([C@@H](C)O)O2)O1 [ionomycin]
- sarcomere formation as assessed by α-actinin immunocytochemistry [1]: no effect

Compound: CO[C@@]12[C@H](COC(N)=O)C3=C(C(=O)C(C)=C(N)C3=O)N1C[C@@H]1N[C@@H]12 [mitomycin C]
- proliferation of the Nk-TAg cells [3]: abated proliferation
- expression of α-actinin ([2]; immunohistochemistry, in the cytoplasm as unassembled Z-lines, mitomycin C 10 mg/ml as printed): enhanced expression of α-actinin

Compound: [Cl-].[K+] [potassium chloride]
- sarcomere formation as assessed by α-actinin immunocytochemistry [1]: no effect

Compound: CC1=C(/C=C/C(C)=C/C=C/C(C)=C/C(=O)O)C(C)(C)CCC1 [trans-retinoic acid]
- sarcomere formation as assessed by α-actinin immunocytochemistry [1]: no effect

Compound: IGF-I: insulin-like growth factor I (Roche)
- sarcomere formation as assessed by α-actinin immunocytochemistry [1]: no effect

Compound: TGFb1: recombinant human transforming growth factor-β1 (R&D Systems)
- sarcomere formation as assessed by α-actinin immunocytochemistry [1]: no effect

Compound: angiotensin II (DRVYIHPF; Angiotensin-2; UniProt P01019 25-32, looked up)
- assembly of sarcomeres [2]: did not further induce the assembly of sarcomeres

Compound: bFGF: basic fibroblast growth factor
- sarcomere formation as assessed by α-actinin immunocytochemistry [1]: no effect

Compound: dynorphin-β
- sarcomere formation as assessed by α-actinin immunocytochemistry [1]: no effect

Compound: endothelin-1 (CSCSSLMDKECVYFCHLDIIW; ends and bridges not checked; cysteine pairing not given here; UniProt P05305 53-73, looked up) [ET-1]
- assembly of sarcomeres [2]: did not further induce the assembly of sarcomeres
